Experiments:
Assay in all cases: biochemical
Design in all cases: Safety pharmacology off-target panel at Eurofins, radioligand binding with agonist or antagonist radioligand (Supplementary Table 2)
5-HT2B = molecular target: T1, 5-HT2B (Homo sapiens, UniProt P41595); conditions: agonist radioligand
T1 construct: gene HTR2B
Description: (§1) Wide-range phosphatase, kinase and preclinical safety pharmacology off-target activity screens were conducted at Eurofins (Extended Data Table 5 and Supplementary Tables 1 and 2). A small phosphatase panel was developed at AbbVie to assess IC50 values on select phosphatases. The following enzymes used in the phosphatase selectivity panel were purchased from Eurofins: PTPN1 (PTP1B; 14–621), PTPN2 (TC-PTP; 14–646), PTPN9 (14–592), SHP1 (14–591) and SHP2 (14–622). The catalytic activity of the phosphatase was monitored using the small-molecule substrate DiFMUP (ThermoFisher) in a fluorescence assay format. In brief, the phosphatase reactions were performed at room temperature in the following assay buffer: 50 mM HEPES, pH 7.2, 100 mM NaCl, 1 mM EDTA, 0.005% Tween-20 and 5 mM TCEP. Each phosphatase was incubated with increasing concentrations of AC484 for 5 min, after which the substrate DiFMUP was added and incubated at 25 °C for 30 min. The final concentration of the enzyme and substrate was maintained at 0.5 nM and 5 μM, respectively, in all the assays. The reaction was then quenched by the addition of a 100 μM solution of bpV(Phen) (Enzo Life Sciences). The fluorescence signal was monitored using an Envision microplate reader (Perkin-Elmer) using excitation and emission wavelengths of 340 nm and 450 nm, respectively. The dose–response curves for the inhibitors were analysed using normalized IC50 regression curve fitting with control-based normalization. Supplementary file 41586_2023_6575_MOESM4_ESM.xlsx: Supplementary Table 2 AC484 receptor selectivity screen.

M4 = molecular target: T2, M4 (Homo sapiens, UniProt P08173); conditions: antagonist radioligand
T2 construct: gene CHRM4
T2 sequence (P08173 whole entry): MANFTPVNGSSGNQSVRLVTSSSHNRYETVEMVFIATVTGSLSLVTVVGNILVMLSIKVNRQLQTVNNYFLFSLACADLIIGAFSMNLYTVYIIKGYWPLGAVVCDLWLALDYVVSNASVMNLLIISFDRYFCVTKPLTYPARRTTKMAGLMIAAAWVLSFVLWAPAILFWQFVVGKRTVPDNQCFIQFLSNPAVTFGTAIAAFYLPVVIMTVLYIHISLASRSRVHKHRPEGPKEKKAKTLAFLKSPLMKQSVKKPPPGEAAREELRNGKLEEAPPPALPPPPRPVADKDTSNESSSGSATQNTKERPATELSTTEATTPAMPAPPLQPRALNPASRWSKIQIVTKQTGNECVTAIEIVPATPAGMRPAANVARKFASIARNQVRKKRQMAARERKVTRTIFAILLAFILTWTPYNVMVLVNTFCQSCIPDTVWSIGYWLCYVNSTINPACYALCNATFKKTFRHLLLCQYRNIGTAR
Description: as §1

VPAC1 (VIP1) = molecular target: T3, VPAC1 (VIP1) (Homo sapiens, UniProt P32241); conditions: agonist radioligand
T3 construct: gene VIPR1
Description: as §1

UT = molecular target: T4, UT (Homo sapiens, UniProt Q9UKP6); conditions: agonist radioligand
T4 construct: gene UTS2R
T4 sequence (Q9UKP6 whole entry): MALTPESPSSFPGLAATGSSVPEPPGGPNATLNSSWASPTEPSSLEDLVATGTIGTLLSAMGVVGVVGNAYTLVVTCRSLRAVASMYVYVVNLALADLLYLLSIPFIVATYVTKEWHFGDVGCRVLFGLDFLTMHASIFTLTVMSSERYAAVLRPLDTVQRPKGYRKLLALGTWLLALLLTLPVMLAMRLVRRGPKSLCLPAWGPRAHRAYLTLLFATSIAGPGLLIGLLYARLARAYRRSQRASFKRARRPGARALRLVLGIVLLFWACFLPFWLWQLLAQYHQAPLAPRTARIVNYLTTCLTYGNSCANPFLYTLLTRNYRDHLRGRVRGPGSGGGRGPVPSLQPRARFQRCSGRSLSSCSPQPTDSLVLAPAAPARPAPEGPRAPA
Description: as §1

5-HT2A = molecular target: T5, 5-HT2A (Homo sapiens, UniProt P28223); conditions: antagonist radioligand
T5 construct: gene HTR2A
T5 sequence (P28223 whole entry): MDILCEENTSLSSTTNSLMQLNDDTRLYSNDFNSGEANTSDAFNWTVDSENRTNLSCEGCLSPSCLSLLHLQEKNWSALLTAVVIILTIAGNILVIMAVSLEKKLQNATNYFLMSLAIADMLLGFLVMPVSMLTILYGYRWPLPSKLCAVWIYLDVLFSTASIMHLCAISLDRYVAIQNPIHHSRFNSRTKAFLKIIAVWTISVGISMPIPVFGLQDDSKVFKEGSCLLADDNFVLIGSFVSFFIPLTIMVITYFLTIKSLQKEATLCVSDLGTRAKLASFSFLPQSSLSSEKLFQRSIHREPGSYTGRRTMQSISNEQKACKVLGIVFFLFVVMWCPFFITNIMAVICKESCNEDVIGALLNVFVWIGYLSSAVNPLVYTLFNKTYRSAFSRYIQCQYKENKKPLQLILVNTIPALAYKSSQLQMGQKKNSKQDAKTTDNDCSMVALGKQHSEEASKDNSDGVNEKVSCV
Description: as §1

CCK1 (CCKA) = molecular target: T6, CCK1 (CCKA) (Homo sapiens, UniProt P32238); conditions: agonist radioligand
T6 construct: gene CCKAR
Description: as §1

AR = AR (Homo sapiens, UniProt P10275); conditions: agonist radioligand
Chain of AR (P10275 whole entry): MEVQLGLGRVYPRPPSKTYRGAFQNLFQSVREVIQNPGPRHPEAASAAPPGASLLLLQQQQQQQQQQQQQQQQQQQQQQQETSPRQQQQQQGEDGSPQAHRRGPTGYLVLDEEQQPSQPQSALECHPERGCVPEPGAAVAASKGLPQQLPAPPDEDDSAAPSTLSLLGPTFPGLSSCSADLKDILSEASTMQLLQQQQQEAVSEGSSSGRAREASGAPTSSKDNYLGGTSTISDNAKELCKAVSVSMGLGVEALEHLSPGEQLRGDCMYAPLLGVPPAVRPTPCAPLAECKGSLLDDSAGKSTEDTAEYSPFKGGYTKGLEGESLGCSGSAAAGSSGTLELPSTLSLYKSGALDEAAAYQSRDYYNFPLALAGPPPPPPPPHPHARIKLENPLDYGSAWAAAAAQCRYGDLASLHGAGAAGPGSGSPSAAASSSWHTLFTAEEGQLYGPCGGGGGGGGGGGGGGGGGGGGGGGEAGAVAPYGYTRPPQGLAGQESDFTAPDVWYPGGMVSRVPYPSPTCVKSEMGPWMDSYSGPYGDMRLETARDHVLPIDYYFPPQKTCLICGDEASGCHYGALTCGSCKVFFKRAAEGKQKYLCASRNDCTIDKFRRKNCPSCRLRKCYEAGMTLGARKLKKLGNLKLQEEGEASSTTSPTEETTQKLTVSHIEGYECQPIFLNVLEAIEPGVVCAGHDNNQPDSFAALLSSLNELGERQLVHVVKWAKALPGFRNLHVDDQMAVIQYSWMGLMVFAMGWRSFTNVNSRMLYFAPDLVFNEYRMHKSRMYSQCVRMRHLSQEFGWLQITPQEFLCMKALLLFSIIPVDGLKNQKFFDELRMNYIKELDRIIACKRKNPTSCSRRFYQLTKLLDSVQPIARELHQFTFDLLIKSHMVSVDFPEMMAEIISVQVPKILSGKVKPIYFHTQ
Description: as §1

b2 (h) = molecular target: T7, b2 (h) (Homo sapiens, UniProt P07550); conditions: antagonist radioligand
T7 construct: gene ADRB2
T7 sequence (P07550 whole entry): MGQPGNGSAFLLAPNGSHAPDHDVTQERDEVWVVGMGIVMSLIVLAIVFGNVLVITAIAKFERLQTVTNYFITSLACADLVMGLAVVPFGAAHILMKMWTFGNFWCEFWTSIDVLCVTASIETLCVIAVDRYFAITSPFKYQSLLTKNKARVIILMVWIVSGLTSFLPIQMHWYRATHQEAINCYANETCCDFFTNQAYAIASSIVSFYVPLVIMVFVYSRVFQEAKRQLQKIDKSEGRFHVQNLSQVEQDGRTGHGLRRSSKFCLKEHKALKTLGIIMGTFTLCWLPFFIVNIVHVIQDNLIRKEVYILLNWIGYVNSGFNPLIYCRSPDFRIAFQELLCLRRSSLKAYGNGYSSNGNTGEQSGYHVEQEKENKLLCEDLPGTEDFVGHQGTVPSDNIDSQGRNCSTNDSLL
Description: as §1

Y1 = molecular target: T8, Y1 (Homo sapiens, UniProt P25929); conditions: agonist radioligand
T8 construct: gene NPY1R
Description: as §1

D1 = molecular target: T9, D1 (Homo sapiens, UniProt P21728); conditions: antagonist radioligand
T9 construct: gene DRD1
Description: as §1

GABAA1 (a1.b2.g2) = molecular target: T10, GABAA1 (a1.b2.g2) (Homo sapiens, UniProt P14867+P18507+P47870); conditions: agonist radioligand
T10 construct: gene GABRA1; a1.b2.g2
T10 sequence (P14867 whole entry): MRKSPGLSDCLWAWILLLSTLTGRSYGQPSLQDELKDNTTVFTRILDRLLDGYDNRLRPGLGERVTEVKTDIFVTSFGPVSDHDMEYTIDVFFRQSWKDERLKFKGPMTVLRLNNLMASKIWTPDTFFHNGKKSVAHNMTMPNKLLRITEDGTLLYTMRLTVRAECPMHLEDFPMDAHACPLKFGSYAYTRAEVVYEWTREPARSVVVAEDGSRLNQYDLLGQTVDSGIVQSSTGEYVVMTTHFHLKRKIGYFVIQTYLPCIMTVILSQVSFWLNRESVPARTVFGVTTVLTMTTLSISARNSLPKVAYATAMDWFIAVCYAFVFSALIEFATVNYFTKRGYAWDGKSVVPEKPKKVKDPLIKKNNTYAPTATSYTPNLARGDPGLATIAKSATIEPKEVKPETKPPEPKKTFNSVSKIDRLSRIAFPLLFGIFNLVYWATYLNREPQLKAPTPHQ
T10 sequence (P18507 whole entry): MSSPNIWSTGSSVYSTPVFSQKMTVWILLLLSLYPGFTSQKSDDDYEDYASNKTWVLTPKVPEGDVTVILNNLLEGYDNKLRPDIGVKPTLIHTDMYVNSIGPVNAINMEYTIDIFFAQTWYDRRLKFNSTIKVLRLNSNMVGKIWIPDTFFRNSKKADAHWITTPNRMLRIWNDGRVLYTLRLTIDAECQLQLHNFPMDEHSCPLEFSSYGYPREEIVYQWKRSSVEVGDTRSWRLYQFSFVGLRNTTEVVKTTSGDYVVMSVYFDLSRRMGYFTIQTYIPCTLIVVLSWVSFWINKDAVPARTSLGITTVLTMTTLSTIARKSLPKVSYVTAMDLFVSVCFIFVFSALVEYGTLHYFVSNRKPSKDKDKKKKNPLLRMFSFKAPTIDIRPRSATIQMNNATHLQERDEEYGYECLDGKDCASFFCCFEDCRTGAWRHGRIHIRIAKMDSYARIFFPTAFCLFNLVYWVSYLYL
T10 sequence (P47870 whole entry): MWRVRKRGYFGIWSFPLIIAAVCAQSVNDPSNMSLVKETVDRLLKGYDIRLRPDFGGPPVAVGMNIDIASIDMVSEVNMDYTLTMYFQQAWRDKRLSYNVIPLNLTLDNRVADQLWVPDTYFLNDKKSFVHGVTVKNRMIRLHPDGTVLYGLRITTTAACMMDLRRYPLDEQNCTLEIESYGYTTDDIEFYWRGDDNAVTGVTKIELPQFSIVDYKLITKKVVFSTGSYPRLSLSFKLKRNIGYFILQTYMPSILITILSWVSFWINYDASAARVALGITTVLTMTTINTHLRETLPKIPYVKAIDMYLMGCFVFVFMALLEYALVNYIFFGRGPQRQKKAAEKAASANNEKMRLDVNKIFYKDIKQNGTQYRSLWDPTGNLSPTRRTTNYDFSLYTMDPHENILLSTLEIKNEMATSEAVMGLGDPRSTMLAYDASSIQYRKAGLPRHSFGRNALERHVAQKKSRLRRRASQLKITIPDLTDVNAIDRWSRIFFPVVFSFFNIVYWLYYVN
Description: as §1

PPARg = PPARg (Homo sapiens, UniProt P37231); conditions: agonist radioligand
Description: as §1

a2B (h) [1] = molecular target: T11, a2B (h) (Homo sapiens, UniProt P18089); conditions: antagonist radioligand
T11 construct: gene ADRA2B
T11 sequence (P18089 whole entry): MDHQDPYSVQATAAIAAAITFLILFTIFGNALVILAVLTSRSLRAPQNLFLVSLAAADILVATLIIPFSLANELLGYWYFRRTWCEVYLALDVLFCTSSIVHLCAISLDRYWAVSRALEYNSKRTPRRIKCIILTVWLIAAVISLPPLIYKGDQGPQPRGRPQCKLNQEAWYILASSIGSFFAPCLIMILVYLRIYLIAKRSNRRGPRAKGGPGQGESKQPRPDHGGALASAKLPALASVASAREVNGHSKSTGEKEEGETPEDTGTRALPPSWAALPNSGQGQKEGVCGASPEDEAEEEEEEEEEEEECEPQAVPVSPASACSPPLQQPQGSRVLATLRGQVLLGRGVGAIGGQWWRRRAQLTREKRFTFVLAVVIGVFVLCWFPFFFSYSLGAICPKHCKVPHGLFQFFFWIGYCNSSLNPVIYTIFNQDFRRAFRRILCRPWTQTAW
Description: as §1

5-HT4e = molecular target: T12, 5-HT4e (Homo sapiens, UniProt Q13639); conditions: antagonist radioligand
T12 construct: gene HTR4; 5-HT4e isoform
Description: as §1

D2S = molecular target: T13, D2S (Homo sapiens, UniProt P14416); conditions: antagonist radioligand
T13 construct: gene DRD2; D2S short isoform
Description: as §1

5-HT transporter = molecular target: T14, 5-HT transporter (Homo sapiens, UniProt P31645); conditions: antagonist radioligand
T14 construct: gene SLC6A4
Description: as §1

Motilin = molecular target: T15, Motilin (Homo sapiens, UniProt O43193); conditions: agonist radioligand
T15 construct: gene MLNR
T15 sequence (O43193 whole entry): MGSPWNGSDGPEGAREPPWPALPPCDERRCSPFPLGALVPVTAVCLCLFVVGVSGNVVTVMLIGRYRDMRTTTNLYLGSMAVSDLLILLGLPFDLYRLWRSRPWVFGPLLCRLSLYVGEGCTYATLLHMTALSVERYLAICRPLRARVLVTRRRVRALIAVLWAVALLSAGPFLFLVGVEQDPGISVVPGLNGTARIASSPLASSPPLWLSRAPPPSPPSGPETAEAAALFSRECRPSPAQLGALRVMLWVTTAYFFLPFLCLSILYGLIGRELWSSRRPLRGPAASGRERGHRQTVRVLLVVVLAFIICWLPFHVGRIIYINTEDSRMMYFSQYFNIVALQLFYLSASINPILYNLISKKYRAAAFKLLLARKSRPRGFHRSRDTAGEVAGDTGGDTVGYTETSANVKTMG
Description: as §1

b1 (h) = molecular target: T16, b1 (h) (Homo sapiens, UniProt P08588); conditions: agonist radioligand
T16 construct: gene ADRB1
Description: as §1

A2B (h) [2] = molecular target: T17, A2B (h) (Homo sapiens, UniProt P29275); conditions: antagonist radioligand
T17 construct: gene ADORA2B
Description: as §1

Measured: AC50

CC(C)CCN[C@@H]1CCc2cc(O)c(N3CC(=O)NS3(=O)=O)c(F)c2C1 [AC484, ABBV-CLS-484]
> 0.01 mM: all assays above
